Measured values from patent US9707200B2, “Metabolism-improving agent comprising rare fatty acid” (KYOTO UNIVERSITY, priority 2012, dated 2017).

Experiments:
PPARα = biological target: T1, PPARα (Homo sapiens, UniProt Q07869); assay: PPARα ligand activity, GAL4-PPARα reporter luciferase assay in CV-1 cells; format: cell-based; conditions: 24 hr incubation, KetoA and HYA each at 30 μM, other fatty acids by a similar method
T1 construct: expressed in transfected cells; host or cells: CV-1 (African green monkey kidney)
T1 sequence (Q07869 239-466 limits assumed): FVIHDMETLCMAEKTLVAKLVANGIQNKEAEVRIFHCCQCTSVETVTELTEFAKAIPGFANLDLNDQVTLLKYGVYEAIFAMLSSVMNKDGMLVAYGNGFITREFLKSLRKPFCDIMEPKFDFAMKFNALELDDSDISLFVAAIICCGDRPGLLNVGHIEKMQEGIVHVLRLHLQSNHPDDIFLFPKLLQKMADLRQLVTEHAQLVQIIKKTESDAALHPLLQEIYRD
Description: (§1) To evaluate the function of oxo fatty acid and the like, PPARα, γ-activating action was measured first. The measurement was performed in reference to Nobuyuki Takahashi et al., FEES Letters 514 (2002) p. 315-322, “Dual action of isoprenols from herbal medicines on both PPARgamma and PPARalpha in 3T3-L1 adipocytes and HepG2 hepatocytes.”, the section of Materials and Methods “Reporter plasmids and luciferase assays”. To be specific, a plasmid containing DNA encoding a fused protein of PPARα, γ ligand binding region and GAL4 DNA binding region (pM-hPPARα or pM-hPPARγ), a reporter plasmid containing GAL4 binding DNA sequence linked to luciferase (p4xUASg-tk-luc), and internal control (pRL-CMV) to standardize transfection efficiency were introduced into CV-1 cell derived from the kidney of African green monkey. The ligand described below was added to the cells and, after incubation for 24 hr, luciferase activity was measured. As a ligand, KetoA and HYA were each added at 30 μM.
(§2) The concentration of the sample was adjusted with ethanol. Ethanol was used as a negative control, […], and GW7647 (10 nM) and Troglitazone (5 μM) were used as […].

LXR = biological target: T2, LXR (Homo sapiens, UniProt Q13133); assay: Antagonizing action on LXR by luciferase assay; format: cell-based; conditions: overall finding from SREBP-1c, SREBP-1, SCD-1, FAS, ACC1, 2, triacylglycerol and LXR luciferase measurements in HepG2 cells
T2 construct: expressed in transfected cells; host or cells: HepG2 (human liver cancer-derived)
T2 sequence (Q13133 1-447): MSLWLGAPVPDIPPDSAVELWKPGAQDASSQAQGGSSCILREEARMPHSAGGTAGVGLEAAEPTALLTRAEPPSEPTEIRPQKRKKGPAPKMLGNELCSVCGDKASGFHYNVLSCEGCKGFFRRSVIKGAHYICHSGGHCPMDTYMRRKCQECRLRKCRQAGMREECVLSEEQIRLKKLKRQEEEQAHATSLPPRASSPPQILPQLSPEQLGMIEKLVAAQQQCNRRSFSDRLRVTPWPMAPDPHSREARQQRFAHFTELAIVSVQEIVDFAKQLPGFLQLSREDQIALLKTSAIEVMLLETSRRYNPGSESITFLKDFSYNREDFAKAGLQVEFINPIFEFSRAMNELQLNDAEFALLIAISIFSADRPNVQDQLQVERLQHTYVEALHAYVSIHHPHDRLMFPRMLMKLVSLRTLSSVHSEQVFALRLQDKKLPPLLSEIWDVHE
Description: In addition, the protein expression level of immature and mature SREBP-1c was measured. Cells treated as mentioned above were dispersed in buffer A (250 mM sucrose, 10 mM HEPES-KOH, 10 mM KCl, 1.5 mM MgCl2, 1 mM EDTA-Na, 1 mM EGTA-Na, pH 7.6) containing a protease inhibitor, passed 20 times through a 23 gauge injection needle, and centrifuged (1,000×g, 4° C., 5 min) to separate into supernatant 1 and precipitate 1. The precipitate 1 was re-dissolved in buffer B (20 mM HEPES-KOH, 0.42 M NaCl, 2.5% glycerol, 1.5 mM MgCl2, 1 mM EDTA-Na, 1 mM EGTA-Na, pH 7.6), and centrifuged (10^5×g, 4° C., 15 min). The obtained supernatant 2 was used as a nuclear fraction (including mature form). The supernatant 1 was further centrifuged (10^5×g, 4° C., 15 min), and the obtained precipitate 2 was dissolved in cell lysate (10 mM Tris-HCl, 100 mM NaCl, 1% SDS, 1 mM EDTA-Na, 1 mM EGTA-Na) and used as a membrane fraction (including immature form). Using these as samples, measurement was performed by Western blot method using anti-SREBP-1 polyclonal antibody (Santa Cruz). Using Dual luciferase system (Promega), antagonizing action on LXR was evaluated by luciferase assay. p3xIR1-tk-Luc, pCMX-hLXRa, pRL-CMX were introduced into HepG2 cell. After culture in a 0.1% BSA-containing serum-free medium containing various fatty acids and T0901317 for 24 hr, the luciferase activity was measured.

PPARγ = biological target: T3, PPARγ (Homo sapiens, UniProt P37231); assay: PPARγ ligand activity, GAL4-PPARγ reporter luciferase assay in CV-1 cells; format: cell-based; conditions: 24 hr incubation, KetoA and HYA each at 30 μM, other fatty acids by a similar method
T3 construct: expressed in transfected cells; host or cells: CV-1 (African green monkey kidney)
T3 sequence (P37231 238-503 limits assumed): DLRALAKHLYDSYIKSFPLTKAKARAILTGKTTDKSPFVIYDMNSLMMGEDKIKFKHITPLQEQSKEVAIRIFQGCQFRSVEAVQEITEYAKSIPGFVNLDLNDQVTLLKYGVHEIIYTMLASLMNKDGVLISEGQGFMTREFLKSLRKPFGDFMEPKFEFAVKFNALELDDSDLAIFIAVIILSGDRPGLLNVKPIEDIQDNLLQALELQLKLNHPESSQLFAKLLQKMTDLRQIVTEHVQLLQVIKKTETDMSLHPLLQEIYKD
Description: as §1, §2

HepG2 cells [1] = assay: Intracellular triacylglycerol accumulation by LXR agonist; format: cell-based, human; conditions: 10 nM T0901317 alone, 24 hr
Description: HepG2 cells (2.0×10^5 cells/mL) were cultured in DMEM medium containing 10% FES for 24 hr, and the medium was exchanged with 0.1% BSA-containing DMEM medium containing 10 nM LXR agonist T0901317 (Cayman Chemicals) and 60 μM various fatty acid. After culture for 24 hr, the cells were recovered, and total RNA was extracted using Sepasol reagent (Nacalai Tesque). After DNase treatment, reverse transcription was performed using SuperScriptII (Invitrogen) to give a cDNA solution. Using SYBR Green Mix (Bio-Rad, Richmond, Calif.) and gene-specific primer (Table 1), real-time PCR was performed as follows.
1. Reaction at 96° C., 15 min, 2. reaction at 96° C., 15 sec, 3. reaction at 60° C. for 30 sec, 4. measurement of fluorescence, 5. 2-4 were repeated 40 times, 6. the melting curve was measured from 65° C. to 95° C. at 0.4° C. intervals. As the internal standard, 18S rRNA was used. The genes involved in the fatty acid synthesis as measured were Sterol regulatory element binding protein-1c (SREBP-1c), Stearoyl coenzyme A desaturase-1 (SCD-1), Fatty acid synthase (FAS), and Acetyl CoA carboxylase-1 and -2 (ACC-1, 2). As for the amount of accumulated intracellular TG, the lipid was extracted with chloroform-methanol, and quantified by triglyceride-′E Test Wako (Wako Pure Chemical Industries, Ltd.).

HepG2 cells [2] = assay: Effect on LXR agonist-induced expression of fatty acid synthesis genes, real-time PCR; format: cell-based, human; conditions: 10 nM T0901317 alone, 24 hr

Structure (SMILES) | PPARα agonist activity (relative luciferase activity) (PPARα) | lipid synthesis suppressive action by the antagonizing action on LXR (LXR) | PPARγ agonist activity (relative luciferase activity) (PPARγ) | intracellular triacylglycerol level (HepG2 cells [1]) | expression of SREBP-1c mRNA (HepG2 cells [2])
CCCCCCCCC(O)CCCCCCCCC(=O)O (stereo not shown) [HYB, 10-hydroxyoctadecanoic acid] | PPARα agonist activity | lipid synthesis suppressive action | – | – | –
CCCCCCCCC(=O)CCCCCCCCC(=O)O [KetoB, 10-oxooctadecanoic acid] | PPARα agonist activity | – | – | – | –
CCCCCC/C=C/C(=O)CCCCCCCCC(=O)O [KetoC, 10-oxo-trans-11-octadecenoic acid] | PPARα and γ agonist activity | – | PPARα and γ agonist activity | – | –
CCCCCC[C@@H](O)C/C=C\CCCCCCCC(=O)O [RA, ricinoleic acid] | PPARα agonist activity | lipid synthesis suppressive action | – | – | –
O=S(=O)(c1ccccc1)N(CC(F)(F)F)c1ccc(C(O)(C(F)(F)F)C(F)(F)F)cc1 [T0901317, reference compound] | – | – | – | increased | about 7 fold
CCCCCCC(O)CC(O)CCCCCCCCC(=O)O (stereo not shown) [rHYA, 10,12-dihydroxyoctadecanoic acid] | PPARα agonist activity | – | – | – | –
CCCCCCC(O)CCCCCCCCCCC(=O)O (stereo not shown) [rHYB, 12-hydroxyoctadecanoic acid] | PPARα agonist activity | lipid synthesis suppressive action | – | – | –
CCCCCCC(=O)CCCCCCCCCCC(=O)O [rKetoB, 12-oxooctadecanoic acid] | PPARα agonist activity | lipid synthesis suppressive action | – | – | –
CCCCC/C=C\CC(O)CC/C=C\CCCCC(=O)O (stereo not drawn) [γHYA, 10-hydroxy-cis-6,cis-12-octadecadienoic acid] | PPARα agonist activity | lipid synthesis suppressive action | – | – | –
CCCCCC/C=C/C(=O)CC/C=C\CCCCC(=O)O [γKetoC, 10-oxo-cis-6,trans-11-octadecadienoic acid] | PPARα and γ agonist activity | – | PPARα and γ agonist activity | – | –

The next lines start with results.

PPARα agonist activity (relative luciferase activity) (PPARα) | lipid synthesis suppressive action by the antagonizing action on LXR (LXR) | PPARγ agonist activity (relative luciferase activity) (PPARγ) | Structure (SMILES) | intracellular triacylglycerol level (HepG2 cells [1]) | expression of SREBP-1c mRNA (HepG2 cells [2])
PPARα agonist activity | – | – | CC/C=C\C/C=C\CC(O)CCCCCCCCC(=O)O (stereo not drawn) [αHYA, 10-hydroxy-cis-12,cis-15-octadecadienoic acid] | – | –
– | lipid synthesis suppressive action | PPARγ agonist activity | CC/C=C\C/C=C\CC(=O)CCCCCCCCC(=O)O [αKetoA, 10-oxo-cis-12,cis-15-octadecadienoic acid] | – | –
PPARα and γ agonist activity | – | PPARα and γ agonist activity | CC/C=C\CC/C=C/C(=O)CCCCCCCCC(=O)O [αKetoC, 10-oxo-trans-11,cis-15-octadecadienoic acid] | – | –
– | lipid synthesis suppressive action | PPARγ agonist activity | CCCCC/C=C\CC(=O)CC/C=C\CCCCC(=O)O [γKetoA, 10-oxo-cis-6,cis-12-octadecadienoic acid] | – | –
